How the values were obtained:
[1] = target: T1, baculovirus expressed hAR protein (Homo sapiens, UniProt P10275); assay: Receptor binding assay ([3H]-dihydrotestosterone displacement)
T1 construct: made in house; host or cells: Sf-21 insect cells (baculovirus)
T1 sequence (P10275 1-920): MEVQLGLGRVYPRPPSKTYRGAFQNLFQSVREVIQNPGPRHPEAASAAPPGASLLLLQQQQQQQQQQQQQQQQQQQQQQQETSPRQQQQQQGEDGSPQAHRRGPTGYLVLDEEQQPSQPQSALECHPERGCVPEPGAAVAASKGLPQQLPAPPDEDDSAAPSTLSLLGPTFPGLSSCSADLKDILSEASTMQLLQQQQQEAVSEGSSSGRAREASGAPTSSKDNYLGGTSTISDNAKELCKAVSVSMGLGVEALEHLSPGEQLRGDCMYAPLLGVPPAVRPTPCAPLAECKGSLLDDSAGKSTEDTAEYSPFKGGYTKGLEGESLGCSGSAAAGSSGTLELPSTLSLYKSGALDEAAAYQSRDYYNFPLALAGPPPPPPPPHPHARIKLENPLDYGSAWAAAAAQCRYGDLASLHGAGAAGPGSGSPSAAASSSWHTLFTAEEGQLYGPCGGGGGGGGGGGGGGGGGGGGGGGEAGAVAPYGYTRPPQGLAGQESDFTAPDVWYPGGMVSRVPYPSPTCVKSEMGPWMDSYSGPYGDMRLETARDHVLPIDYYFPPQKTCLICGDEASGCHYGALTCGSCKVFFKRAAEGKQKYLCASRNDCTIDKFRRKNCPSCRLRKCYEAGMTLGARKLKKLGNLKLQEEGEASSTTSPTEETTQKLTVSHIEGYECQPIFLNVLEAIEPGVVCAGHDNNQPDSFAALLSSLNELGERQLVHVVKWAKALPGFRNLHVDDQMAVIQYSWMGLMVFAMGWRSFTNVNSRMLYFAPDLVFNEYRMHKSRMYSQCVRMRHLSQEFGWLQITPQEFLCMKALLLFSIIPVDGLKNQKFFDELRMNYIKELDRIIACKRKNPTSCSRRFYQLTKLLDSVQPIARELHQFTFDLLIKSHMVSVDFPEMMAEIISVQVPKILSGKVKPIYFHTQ

[2] = test system: human skeletal α-actin promoter activity; assay: Skeletal α-actin promoter assay (C2C12 cells transfected with human AR); format: cell-based; conditions: for EC50: C2C12, read-out: EC50, activation of skeletal α-actin promoter; for efficacy, % of DHT: C2C12 mouse muscle cells
From the text: An exemplary assay for measuring AR-mediated gene expression in mouse muscle cells is the human skeletal α-actin assay. A mouse muscle cell line (C2C12, obtained from American Type Cell Culture (ATCC, Rockville, Md.)) can be used in the luciferase reporter assay. An SK α-actin-LUC reporter plasmid is constructed by inserting the skeletal α-actin promoter sequence into a luciferase reporter vector (e.g., by cloning the human skeletal α-actin promoter region from −77 to +202 bp from human liver genomic DNA (Clontech, Palo Alti, Calif.) and inserting the sequence into a pGL3-Basic reporter plasmid (Promega, Madison, Wis.)). The C2C12 cell line can be transiently transfected with a human AR expression plasmid and a luciferase reporter plasmid containing the skeletal α-actin promoter upstream of the luciferase cDNA. The compounds to be tested are added to the cells after transfection and after 24 hours of incubation, the cells are lysed with a detergent-containing buffer and assayed for luciferase activity.
Compound 102 was tested to determine its ability to activate human skeletal α-actin using the skeletal α-actin promoter assay. A mouse muscle cell line (C2C12) was transiently transfected with a human AR expression plasmid and a luciferase reporter plasmid containing the skeletal α-actin promoter upstream of the luciferase cDNA. C2C12 cells (at a concentration of 5×10^5) were seeded in a T25 flask and cultured for 24 hours. The cells were harvested by using trypsin and seeded at 6000 cells/well in 96-well plates. The same day, a non-liposomal formulation, FuGENE 6 reagent (Roche, Indianapolis, Ind.) was used for transfection of the cells. To each well was added 45.5 ng of the skeletal α-actin-LUC reporter plasmid, 4.55 ng pRShAR and 5 ng pRS-BG as carrier DNA. Twenty-four hours after transfection, different concentrations of the solvated compound (10^−10 to 10^−6 M) were added in triplicate to the cells and the cells were incubated for 24 hours. The medium was aspirated and the cells were lysed with a detergent-containing buffer. After addition of Luciferase Assay Buffer to each well, the cells were assayed for luciferase activity using a luminometer to determine the level of transcriptional activation.

| SMILES | Ki [1] | EC50 [2] | efficacy, % of DHT [2] | increase of skeletal α-actin promoter activity compared to vehicle control ([2]; concentration 1×10^−7 M) | more potent in stimulating muscle cells than LG0893410 and LG0893411 ([2]; ratio of EC50) |
| --- | --- | --- | --- | --- | --- |
| N#Cc1ccc(N2CCC[C@@H]2[C@@H](O)C(F)(F)F)cc1C(F)(F)F [Compound 102, R,R-4-(2-(1-Hydroxyl-2,2,2-trifluoroethyl)-pyrrolidinyl)-2-trifluoromethyl-benzonitrile] | 0.9 nM | 8.7 nM | 93% | about 17.5 fold | 5-10 fold |
| O=[N+]([O-])c1ccc(N2CCC[C@@H]2[C@@H](O)C(F)(F)F)cc1C(F)(F)F [LG0893410, R,R-2,2,2-trifluoro-1-[1-(4-nitro-3-trifluoromethyl-phenyl)-pyrrolidin-2-yl]-ethanol] | 2.5 nM | 45.2 nM | 43% |  |  |
| O=[N+]([O-])c1ccc(N2CCC[C@@H]2[C@H](O)C(F)(F)F)cc1C(F)(F)F [LG0893411, S, R-2,2,2-trifluoro-1-[1-(4-nitro-3-trifluoromethyl-phenyl)-pyrrolidin-2-yl]-ethanol] | 5.7 nM | 85.6 nM | 59% |  |  |
